This note sets out measurements from paper PMC4736845, “Structural comparison between the open and closed forms of citrate synthase from Thermus thermophilus HB8” (Biophysics and Physicobiology, 2015).

Molecules are shown by their SMILES.

The assay concerns the target T1, TtCS (citrate synthase from Thermus thermophilus HB8) (Thermus thermophilus, UniProt Q5SIM6).
T1 construct: gene TTHA1343; recombinant, E. coli BL21(DE3) pET-3a; no tag stated; 377 residues, Mr 42,304 per subunit; homodimer
T1 sequence (Q5SIM6 1-377): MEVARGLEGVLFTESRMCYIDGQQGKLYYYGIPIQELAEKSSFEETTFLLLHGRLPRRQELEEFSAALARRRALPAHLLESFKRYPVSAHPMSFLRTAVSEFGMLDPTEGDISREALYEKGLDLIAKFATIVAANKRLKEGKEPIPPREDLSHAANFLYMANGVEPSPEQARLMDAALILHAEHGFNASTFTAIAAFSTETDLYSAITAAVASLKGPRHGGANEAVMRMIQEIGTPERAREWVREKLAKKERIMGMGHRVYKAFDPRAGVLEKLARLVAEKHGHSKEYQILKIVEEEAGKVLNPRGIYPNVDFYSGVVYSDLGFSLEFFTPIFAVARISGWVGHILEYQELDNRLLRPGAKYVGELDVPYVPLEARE
Description: X-ray crystal structure, […] Å, co-crystallised. The format is binding. The settings on record: closed forms (fully and partially closed).

As to `CC(C)(COP(=O)(O)OP(=O)(O)OC[C@H]1O[C@@H](n2cnc3c(N)ncnc32)[C@H](O)[C@@H]1OP(=O)(O)O)[C@@H](O)C(=O)NCCC(=O)NCCS` [CoA], the “X-ray crystal structure, 2.3 Å, co-crystallised” value (ternary complex with citrate, same crystallisation, active site just above citrate) is “CoA is bound at the upper part of the active site just above the citrate-binding site”.

Regarding `O=C(O)CC(O)(CC(=O)O)C(=O)O` [citrate], for the setting “ternary complex with CoA, 10 mM Na-citrate, 10 mM CoA, 100 mM KCl, then 1.5 M lithium sulfate, 100 mM Na-citrate pH 5.8, 20°C, active site”, the “X-ray crystal structure, 2.3 Å, co-crystallised” value is “Citrate is bound deep in the cleft of the active site by hydrogen bonds”.
